Legend:
[1] = system: A.D.P. induced blood-platelet aggregation; experiment: A.D.P. induced blood-platelet aggregation; format: in vivo, Wistar rats; conditions: Rattus norvegicus, po; 100 mg/kg orally, rats, 3 hours after treatment, 10 μM A.D.P. solution; read-out: Percent inhibition of blood-platelet aggregation, A.D.P.
Protocol: (§1) A blood sample is taken from the jugular vein of Wistar rats. From this citrated blood and after centifugation, a plasma is reconstituted which contains 600,000 ± 20,000 blood-platelets per ml, which plasma is then used in all aggregation determinations.
(§2) 0.4 ml plasma is placed in a siliconized tube provided with a magnet bar, also siliconized. The tube is introduced into an aggregometer connected to an apparatus which records optical density variations. When light transmission has attained a stable value, 0.5 ml of a solution containing 10 μM A.D.P. (adenosinediphosphate) is added to the tube.
(§3) Blood-platelet aggregation induces an increase of light transmission, followed by a decrease subsequent to the deaggregation phase.
(§4) Different groups of 20 rats each are used, each group being orally administered 100 mg/kg of a test derivative.

[2] = system: Collagen-induced blood-platelet aggregation; experiment: Collagen-induced blood-platelet aggregation; format: in vivo, Wistar rats; conditions: Rattus norvegicus, po; 100 mg/kg orally, rats, 3 hours after treatment; read-out: Percent inhibition of blood-platelet aggregation, Collagen
Protocol: as §1, §2, §3
The A.D.P. solution is substituted with a collagen (bovine tendon extract) solution.
as §4

[3] = system: rat globules (red corpuscles); experiment: In vitro anti-sludge activity, curative procedure (protamine sulfate); format: cell-based; conditions: 25 μg
Protocol: (§5) Said activity was investigated in vitro and in vivo in rats.
(§6) Thrice washed rat globules are diluted to 1/250 in physiological saline. In each of 5 tubes are placed 0.6 ml of this suspension and 0.2 ml physiological saline. To each tube is then added 0-25-50-100 and 200 μg, respectively, of the test derivative contained in 0.2 ml solution. After incubation for one hour at 37° C., 0.2 ml of a solution containing 125 μg/ml protamine sulfate are added, after which the tube is then incubated again for 0.5 hour at 37° C. The globules of each tube are then examined with a Mallases cell, and the percent free globules and the percent aggregates formed by 2, 3, 4, 5 etc.. globules is then recorded.
The experiment was repeated according to a "curvative" procedure; the red corpuscles were first contacted with protamine sulfate and, after incubation for 0.5 hour, 0.2 ml containing 25 μg of test derivative were added thereto, which operation is followed by another incubation for one hour at 37° C. The results obtained are reported in Table III, in which the percent agglomerates as a function of size is indicated.

[4] = system: rat globules (red corpuscles); experiment: In vitro anti-sludge activity, preventive treatment (protamine sulfate); format: cell-based
Protocol: as §5, §6

Compound: O=C(O)[C@@H]1NCc2sccc2[C@@H]1O (relative stereo) [Example 5, 5-Carboxy-4-hydroxy-4,5,6,7-tetrahydro-thieno[2,3-c]pyridine]
- inhibition at 100 mg/kg [1]: 62.3%
- inhibition at 100 mg/kg [2]: 90.5%
- percent agglomerates, size 2 [3]: 11%
- percent agglomerates, size 3 [3]: 3%
- percent agglomerates, size 4 [3]: 0%
- percent agglomerates, size 5 [3]: 0%
- percent agglomerates, size 6 [3]: 0%
- percent agglomerates, size 7 [3]: 0%
- percent agglomerates, size 8 [3]: 0%
- percent agglomerates, size 9 [3]: 0%
- percent agglomerates, size 10 [3]: 0%
- percent free red corpuscles (size of agglomerates 1) [3]: 86%

Compound: O=C(OCc1ccccc1Cl)[C@H]1[C@@H](O)c2sccc2CN1Cc1ccccc1Cl (relative stereo) [Example 8, 5-o-Chlorobenzyl-6-o-chlorobenzyloxycarbonyl-7-hydroxy-4,5,6,7-tetrahydro-thieno[3,2-c]pyridine]
- inhibition at 100 mg/kg [1]: 61.8%
- inhibition at 100 mg/kg [2]: 90.4%

Compound: O=C(OCc1ccccc1F)[C@H]1[C@@H](O)c2ccsc2CN1Cc1ccccc1F (relative stereo) [Example 10, 4-Hydroxy-5-o-fluorobenzyloxycarbonyl-6-o-fluorobenzyl-4,5,6,7-tetrahydro-thieno[2,3-c]pyridine]
- inhibition at 100 mg/kg [1]: 62.2%
- inhibition at 100 mg/kg [2]: 92.1%

Compound: O=C(OCc1ccccc1)[C@H]1[C@@H](O)c2ccsc2CN1Cc1ccccc1 (relative stereo) [Example 11, 4-Hydroxy-5-benzyloxycarbonyl-6-benzyl-4,5,6,7-tetrahydro-thieno[2,3-c]pyridine]
- inhibition at 100 mg/kg [1]: 60.5%
- inhibition at 100 mg/kg [2]: 91.6%

Compound: O=C(O)C1Cc2sc(Cl)cc2CN1 (centres unmarked) [Example 4, 6-Carboxy-2-chloro-4,5,6,7-tetrahydro-thieno[3,2-c]pyridine]
- inhibition at 100 mg/kg [1]: 63.1%
- inhibition at 100 mg/kg [2]: 91.3%

Compound: O=C(OCc1ccccc1)C1Cc2sccc2CN1Cc1ccccc1 (centres unmarked) [Example 12, 5-Benzyl-6-benzyloxycarbonyl-4,5,6,7-tetrahydro-thieno[3,2-c]pyridine]
- inhibition at 100 mg/kg [1]: 61.6%
- inhibition at 100 mg/kg [2]: 90.8%

Compound: COc1cc(COC(=O)C2Cc3sccc3CN2Cc2cc(OC)c(OC)c(OC)c2)cc(OC)c1OC (centres unmarked) [Example 17, 5-(3,4,5-Trimethoxy-benzyl)-6-(3,4,5-trimethoxy-benzyl-oxycarbonyl)-4,5,6,7-tetrahydro-thieno[3,2-c]pyridine]
- inhibition at 100 mg/kg [1]: 61.2%
- inhibition at 100 mg/kg [2]: 92%

Compound: O=C(OCc1ccccc1)C1Cc2ccsc2CN1Cc1ccccc1 (centres unmarked) [Example 20, 5-Benzyloxycarbonyl-6-benzyl-4,5,6,7-tetrahydro-thieno[2,3-c]pyridine]
- inhibition at 100 mg/kg [1]: 60.4%
- inhibition at 100 mg/kg [2]: 91.5%

Compound: CCOC(=O)C1Cc2sc(Cl)cc2CN1Cc1ccccc1 (centres unmarked) [Example 27, 2-Chloro-5-benzyl-6-ethoxycarbonyl-4,5,6,7-tetrahydro-thieno[3,2-c]pyridine]
- percent agglomerates, size 2 ([4]; 25 μg): 16%
- percent agglomerates, size 3 ([4]; 25 μg): 17%
- percent agglomerates, size 4 ([4]; 25 μg): 5%
- percent agglomerates, size 5 ([4]; 25 μg): 0%
- percent agglomerates, size 6 ([4]; 25 μg): 0%
- percent agglomerates, size 7 ([4]; 25 μg): 0%
- percent agglomerates, size 8 ([4]; 25 μg): 0%
- percent agglomerates, size 9 ([4]; 25 μg): 0%
- percent agglomerates, size 10 ([4]; 25 μg): 0%
- percent agglomerates, size 11 ([4]; 25 μg): 0%
- percent agglomerates, size 12 ([4]; 25 μg): 0%
- percent agglomerates, size 13 ([4]; 25 μg): 0%
- percent free red corpuscles (size of agglomerates 1) ([4]; 25 μg): 62%
- percent agglomerates, size 2 ([4]; 50 μg): 20%
- percent agglomerates, size 3 ([4]; 50 μg): 10%
- percent agglomerates, size 4 ([4]; 50 μg): 4%
- percent agglomerates, size 5 ([4]; 50 μg): 0%
- percent agglomerates, size 6 ([4]; 50 μg): 0%
- percent agglomerates, size 7 ([4]; 50 μg): 0%
- percent agglomerates, size 8 ([4]; 50 μg): 0%
- percent agglomerates, size 9 ([4]; 50 μg): 0%
- percent agglomerates, size 10 ([4]; 50 μg): 0%
- percent agglomerates, size 11 ([4]; 50 μg): 0%
- percent agglomerates, size 12 ([4]; 50 μg): 0%
- percent agglomerates, size 13 ([4]; 50 μg): 0%
- percent free red corpuscles (size of agglomerates 1) ([4]; 50 μg): 66%
- percent agglomerates, size 2 ([4]; 100 μg): 15%
- percent agglomerates, size 3 ([4]; 100 μg): 7%
- percent agglomerates, size 4 ([4]; 100 μg): 3%
- percent agglomerates, size 5 ([4]; 100 μg): 0%
- percent agglomerates, size 6 ([4]; 100 μg): 0%
- percent agglomerates, size 7 ([4]; 100 μg): 0%
- percent agglomerates, size 8 ([4]; 100 μg): 0%
- percent agglomerates, size 9 ([4]; 100 μg): 0%
- percent agglomerates, size 10 ([4]; 100 μg): 0%
- percent agglomerates, size 11 ([4]; 100 μg): 0%
- percent agglomerates, size 12 ([4]; 100 μg): 0%
- percent agglomerates, size 13 ([4]; 100 μg): 0%
- percent free red corpuscles (size of agglomerates 1) ([4]; 100 μg): 75%
- percent agglomerates, size 2 ([4]; 200 μg): 9%
- percent agglomerates, size 3 ([4]; 200 μg): 5%
- percent agglomerates, size 4 ([4]; 200 μg): 2%
- percent agglomerates, size 5 ([4]; 200 μg): 0%
- percent agglomerates, size 6 ([4]; 200 μg): 0%
- percent agglomerates, size 7 ([4]; 200 μg): 0%
- percent agglomerates, size 8 ([4]; 200 μg): 0%
- percent agglomerates, size 9 ([4]; 200 μg): 0%
- percent agglomerates, size 10 ([4]; 200 μg): 0%
- percent agglomerates, size 11 ([4]; 200 μg): 0%
- percent agglomerates, size 12 ([4]; 200 μg): 0%
- percent agglomerates, size 13 ([4]; 200 μg): 0%
- percent free red corpuscles (size of agglomerates 1) ([4]; 200 μg): 84%
- percent agglomerates, size 2 [3]: 10%
- percent agglomerates, size 3 [3]: 3%
- percent agglomerates, size 4 [3]: 0%
- percent agglomerates, size 5 [3]: 0%
- percent agglomerates, size 6 [3]: 0%
- percent agglomerates, size 7 [3]: 0%
- percent agglomerates, size 8 [3]: 0%
- percent agglomerates, size 9 [3]: 0%
- percent agglomerates, size 10 [3]: 0%
- percent free red corpuscles (size of agglomerates 1) [3]: 87%

Compound: CCOC(=O)C1Cc2sccc2CN1C (centres unmarked) [Example 28, 5-Methyl-6-ethoxycarbonyl-4,5,6,7-tetrahydro-thieno[3,2-c]pyridine]
- inhibition at 100 mg/kg [1]: 60.8%
- inhibition at 100 mg/kg [2]: 90.2%

Compound: COC(=O)C1Cc2sc(Cl)cc2CN1 (centres unmarked) [Example 29]
- inhibition at 100 mg/kg [1]: 62.7%
- inhibition at 100 mg/kg [2]: 92.7%
- percent agglomerates, size 2 [3]: 9%
- percent agglomerates, size 3 [3]: 2%
- percent agglomerates, size 4 [3]: 1%
- percent agglomerates, size 5 [3]: 0%
- percent agglomerates, size 6 [3]: 0%
- percent agglomerates, size 7 [3]: 0%
- percent agglomerates, size 8 [3]: 0%
- percent agglomerates, size 9 [3]: 0%
- percent agglomerates, size 10 [3]: 0%
- percent free red corpuscles (size of agglomerates 1) [3]: 87%

Compound: COC(=O)C1Cc2sc(Cl)cc2CN1Cc1ccccc1Cl (centres unmarked) [Example 30, 2-Chloro-5-o.chlorobenzyl-6-methoxycarbonyl-4,5,6,7-tetrahydro-thieno[3,2-c]pyridine]
- inhibition at 100 mg/kg [1]: 62.4%
- inhibition at 100 mg/kg [2]: 93%

From patent publication US4147787A, “4,5,6,7-Tetrahydro-thieno[2,3-c]-and [3,2-c]-pyridines, and therapeutic compositions containing the same” (Parcor, priority 1977, dated 1979)
